From patent US6372278B1, “Sweetener composition” (Ajinomoto Co., Inc., priority 1998, dated 2002)
Peptide text beside a SMILES is read from it.

Assays:
[1] = in terms of weight ratio; cited from earlier work
[2] = Dissolution time in water, elution tester (Japanese Pharmacopoeia paddle method); type: physicochemical
Method: (Dissolution rate of raw (original) powders each from NM C-type crystals and APM, and a mixture thereof) A predetermined amount of the sample was introduced into 900 ml water (20° C.) in a 1-L elution tester (the Japanese Pharmacopoeia, Paddle method, 100 rpm) and its dissolution time was measured (end point was visually confirmed).
Specifically, 1 g of sample taken from each mixture consisting of NM C-type crystal raw powder (average particle size of about 100 μm) and APM raw powder (average particle size of about 15 μm, IB-type bundled crystals) at the predetermined various ratios (APM content (% by weight)) shown in Table 1 below, was weighed, and then measured for its dissolution time. For comparison, 1.00 g, 0.90 g, 0.50 g, 0.10 g, 0.03 g, and 0.005 g samples were taken from said NM raw powder, and then their dissolution times were determined in the same manner as above. For the same purpose, 1.00 g, 0.97 g, 0.90 g, 0.50 g, and 0.10 g samples were taken from said APM raw powder, and then their dissolution times were determined in the same manner. […]

[3] = 0.10 g sample alone in 900 ml water, 20° C., paddle 100 rpm
[4] = 0.50 g sample alone in 900 ml water, 20° C., paddle 100 rpm
[5] = 0.90 g sample alone in 900 ml water, 20° C., paddle 100 rpm
[6] = 1.00 g sample alone in 900 ml water, 20° C., paddle 100 rpm, end point visual
[7] = 0.03 g sample alone in 900 ml water, 20° C., paddle 100 rpm
[8] = 0.51 g of NM alone (same sweetness as 1 g mixture containing 50% APM)

Dissolution time [2, 3] [min]	Dissolution time [2, 4] [min]	Dissolution time [2, 5] [min]	Dissolution time ([2]; 0.97 g sample alone in 900 ml water, 20° C., paddle 100 rpm) [min]	Dissolution time [2, 6] [min]	Dissolution time ([2]; 0.005 g sample alone in 900 ml water, 20° C., paddle 100 rpm) [min]	Dissolution time [2, 7] [min]	Dissolution time ([2]; 0.5 g alone, 900 ml water, 20° C.) [min]	Dissolution time [2, 8]	Compound	sweetness strength [1]
10	20	27	29	30	–	–	–	–	COC(=O)[C@H](Cc1ccccc1)NC(=O)[C@@H](N)CC(=O)O [APM, Aspartame] (H-Asp-Phe-OMe)	about 200 times that of sucrose
40	55	60	–	62	4	30	55	about 55 minutes	COC(=O)[C@H](Cc1ccccc1)NC(=O)[C@H](CC(=O)O)NCCC(C)(C)C [NM C-type crystals, N-{N-(3,3-dimethylbutyl)-L-α-aspartyl}-L-phenylalanine 1-methyl ester]	–
16	35	40	–	42	–	10	–	about 35 minutes	COC(=O)[C@H](Cc1ccccc1)NC(=O)[C@H](CC(=O)O)NCCC(C)(C)C [NM A-type crystals, N-{N-(3,3-dimethylbutyl)-L-α-aspartyl}-L-phenylalanine 1-methyl ester]	–
–	–	–	–	–	–	–	–	–	COC(=O)[C@H](Cc1ccccc1)NC(=O)[C@H](CC(=O)O)NCCC(C)(C)C [NM]	about 10,000 times that of sucrose
